Measurements as given in patent publication US20210038732A1, “ANTICANCER MICRORNA AND LIPID FORMULATIONS THEREOF” (INTERNA TECHNOLOGIES B.V., priority 2018, published 2021).

Assays:
[1] = system: twelve syngeneic tumor models; test: Primary tumor growth in a panel of twelve syngeneic tumor models (significance); format: in vivo, mice
Excerpt: In this study, the effect of miRNA-193a formulated in diamino lipid nanoparticles was investigated on the primary tumor growth in a panel of twelve syngeneic tumor models. Six to eight weeks mice (Shanghai Lingchang Bio-Technology Co. Ltd, Shanghai, China) were subcutaneously injected with an appropriate number of syngeneic cancer cells, depending on the cancer model (see Table 18). At the time of randomization, tumor volume (TV) was approximately 80-120 mm^3. Body weights and TVs (caliper measurements) were determined 2-3 times/week. After randomization (indicated as day 0) mice received PBS or miR-193a (formulated in diamino lipid nanoparticles) treatments as shown in Table 19. Each tumor model had two groups as depicted in Table 19. Mice were scheduled to be euthanized after two weeks of follow up after a maximum of four weeks of treatment.

[2] = system: HCT116; test: Caspase 3/7 apoptosis assay; format: cell-based; conditions: 10 nM, normalized to mock
Experimental: (§1) Depending on cancer cell type 3000-6000 cells were seeded in a 96 well plate. After cells attached, they were transfected with different concentrations of miRNA-193a and apoptosis induction was measured at different time points. This assay was performed using Promega kit. 100 uL of caspase reagent was added to 100 uL of media in each well in 96-well plate and incubated for 2 hours in the dark at room temperature. The luminescent signal was read on a luminescent plate reader.
(§2) Different biological effects of miRNA-193a-3p have been tested in various cancer cell lines (see Table 13). For this, various cells were treated with miRNA-193a at different concentrations (1, 3, 10 nM). For all experiments controls (untreated, mock and scrambled) were measured. All assays were performed at 24h, 48h and 72h time points. Data shown in Table 13 are the results for miRNA-193a at 10 nM concentration at indicated time points. All the results have been quantified and normalized to the mock control.
(§3) miRNA-193a treatment in various cancer cell lines decreased cell viability over time as measured by either an MTS assay or by cell count. It enhanced apoptosis induction over time as measured by a caspase 3/7 apoptosis assay. […] It is of note that due to intrinsic characteristics and gene mutation status of each cell line, performing one method to detect apoptosis is not always ideal for all cell lines.

[3] = system: H1975; test: Caspase 3/7 apoptosis assay; format: cell-based; conditions: 10 nM, normalized to mock
Experimental: as §1, §2, §3

[4] = system: Panc-1; test: Caspase 3/7 apoptosis assay; format: cell-based; conditions: 10 nM, normalized to mock
Experimental: as §1, §2, §3

[5] = system: H1299; test: Caspase 3/7 apoptosis assay; format: cell-based; conditions: 10 nM, normalized to mock
Experimental: as §1, §2, §3

[6] = system: EMT6; test: Caspase 3/7 apoptosis assay; format: cell-based; conditions: 10 nM, normalized to mock
Experimental: as §1, §2, §3

[7] = system: MPP2, STMN1, YWHAZ, and CCNA2; test: Expression of G2/M related target genes by RT-PCR; format: cell-based, human; conditions: 10 nM; Hep3B, SNU449 and H1975; 24h, 48h and 72h; vs mock
Experimental: To prepare cDNA, first 100 ng total RNA was mixed with Random Hexamers (Qiagen; final concentration 2 μM) in a final volume of 12.5 μl in NFW, denatured for 5 min at 70° C. and immediately cooled on ice. Next, 7.5 μl of a cDNA synthesis mix was added, consisting of 4 μl 5×RT Buffer (Promega), 0.4 μl 25 mM dNTPs (Promega), 1 μl 200 U/μL MMLV RT-enzyme (Promega), 0.5 μL 40 U/μL RNAse Inhibitor (Promega) and 1.6 μL NFW. The following cDNA synthesis protocol was used:
Similar phenotype has been observed in Panc1 (pancreatic cancer cell) as well as H1975 (lung cancer cell) (data not shown). […] MPP2 and STMN1 associate with cytoskeleton and therefore regulate cell division and proliferation at the G2/M phase, while YWHAZ and CCNA2 play roles in regulation of G2/M phase checkpoint by binding and sequestering the cyclin-dependent kinases.

[8] = system: A549, H460; test: Cell cycle arrest profile (nuclei imaging or flow cytometry); format: cell-based, human; conditions: 10 nM
Experimental: Depending on cancer cell type 3000-6000 cells were seeded in a 96 well plate. After cells attached, they were transfected with different concentrations of miRNA-193a and cell cycle profile was measured at different time points. At selected time points media was aspirated from wells and DNA staining solution (Hoescht 33342/Saponin/PFA) was added to each well and incubated for 2 hours at 37° C. Then, cell images were taken using Thermo Celllnsite in which nuclei were specified and nuclei intensity were measured. Nuclei intensity was analyzed using program R to determine the different phases of the cell cycle (G0/G1, S, G2/M) based on the DNA content.
To specifically detect the cells that are undergoing apoptosis, FITC Annexin V apoptosis detection kit (BD pharmingen) was used. […] After cells attached, they were transfected with different concentrations of miRNA-193a and apoptosis assay was measured at different time points following the manufacturer's protocol. With this assay we have detected the percentage of apoptotic cells indicating the SubG1 phase of the cell cycle.
Different biological effects of miRNA-193a-3p have been tested in various cancer cell lines (see Table 13). […] For all experiments controls (untreated, mock and scrambled) were measured. […] All the results have been quantified and normalized to the mock control. […]

[9] = system: A2058 melanoma cells; test: Malachite Green Phosphate Assay (free phosphate generation); format: cell-based, human; conditions: miRNA-193a-3p at 10 nM, vs untreated, mock, scrambled
Experimental: 2000 A2058 melanoma cells were seeded per well in a 96 well plate. 24h after seeding, cells were transfected with different concentrations of miRNA-193a-3p, scrambled control, siNT5E and siPool as control. Malachite Green Phosphate Assay (Sigma Aldrich) was used to measure the liberation of phosphate from nucleoside triphosphates ATP following inhibition of CD39 (ENTPD1) and CD73 (NT5E) as target genes of miRNA-193a-3p 24h and 48h post transfection. The rapid colour formation from the reaction can be conveniently measured on a plate reader (600-660 nm).

[10] = system: 4T1; test: Cell viability (MTS assay or cell count); format: cell-based, mouse; conditions: 10 nM; TNBC 4T1; normalized to mock
Experimental: Depending on cancer cell type 3000-6000 cells were seeded in a 96 well plate. After cells attached, they were transfected with different concentrations of miRNA-193a and viability was measured at different time points. Viability measurement was performed using CellTiter 96 AQueous One Solution Cell Proliferation Assay (Promega). 20 μL of MTS reagent was added to 100 μL of media in each well in 96-well plate and incubated for 2 hours at 37° C. Absorbance was measured at 490 nm for each sample in 96 well plate reader.
as §2, with “All assays were performed at 24h, 48h and 72h time points.” left out
as §3

miRNA-193a: duplex of the miRNA-193a-3p of SEQ ID NO: 218 (mimic, sense) with antisense strand SEQ ID NO: 219; naked in vitro, formulated in vivo (sense UGGGACUUUGUAGGCCAGUUTT; antisense AACUGGCCUACAAAGUCCCAGU; chemistry not given here; listed as Homo sapiens)
Tumor growth inhibition (TGI), significance ([1]; CT26, Renca, and Hepa1-6 models): did not induce significant TGI | Tumor growth inhibition (TGI), significance ([1]; H22, Pan02, B16-BL6, RM-1, B16F10, MC38, A20, and EMT-6 models): significantly induced tumor growth inhibition | Apoptosis (48/72 h) [2]: ↑↑ (Induction > 2x) | Apoptosis (48/72 h) [3]: ↑ (Induction < 2x) | Apoptosis (48/72 h) [4]: ↑↑ (Induction > 2x) | Apoptosis (48/72 h) [5]: ↑ (Induction < 2x) | Apoptosis (48/72 h) [6]: ↑↑ (Induction > 2x) | Expression level of G2/M related target genes [7]: down-regulated | Cell cycle arrest (72 h) [8]: SubG1 | Free phosphate generation [9]: reduced the level of free phosphate production | Viability (96 h) [10]: ↓ (Viability > 50%)
